The results in this text go back to patent US20220229063A1, “FLUORESCENT COMPOUND WITH CYANURIC-HYDROXIDE AND PREPARATION METHOD THEREOF” (Bioacts Corporation, priority 2021, published 2022).

Where only a bound is given, the exact number is not on record here.

The series can be described thus: Comparison of fluorescent values at the same absorption wavelength of compound 2-1 and compound 2-2. The class given is physicochemical. As to the method:
In order to confirm an increase in fluorescent intensity by introducing triazine substituted with a hydroxyl group shown in the compound 3-3 as a linker, the following comparative experiment was conducted.
The compound 2-1 was dissolved in DMF at a concentration of 10 mg/ml and then 5 μl of the compound 2-1 was added to 5 ml of PBS at room temperature, and 5 μl of the compound 2-2 was added to 5 mL of PBS at the same concentration in the same manner. The absorption was measured by adding 2 mL of two samples by 1 mL of PBS and the fluorescence was measured even after diluting the compounds.
In FIGS. 1 and 2, the numerical values of ½ and ¼ indicate that the initial concentration was diluted.

Take `CC1(CCCCCC(=O)NCCCNc2nc(O)nc(NCCCCCC(=O)ON3C(=O)CCC3=O)n2)C(/C=C/C=C/C=C2/N(CCCS(=O)(=O)O)c3ccc(S(=O)(=O)O)cc3C2(C)C)=[N+](CCCS(=O)(=O)O)c2ccc(S(=O)(=O)[O-])cc21` (centres unmarked) [Compound 2-2]: where the note is “compared to compound 2-1, at a concentration representing the same absorption intensity, DMF stock 10 mg/ml diluted in PBS, room temperature”, the “increase in fluorescence intensity” value is listed as not below 162%. In addition, where the note is “single dye form, in PBS, initial concentration and 1/2, 1/4 dilutions”, the “fluorescence intensity as compared to the compound 2-1” value is recorded as “the higher the concentration, the higher the fluorescence intensity”.
